According to patent US8076487B2, “Pyridone derivative and herbicide” (Kumiai Chemical Industry Co., Ltd., priority 2006, dated 2011):

Experiments:
Format in all cases: in vivo
[1] = system: Japanese bulrush (Scirpus juncoides Roxb.); test: Test Example 1: herbicidal effect by soil application to paddy field; conditions: paddy field soil application; active ingredient 1,000 g per 1 hectare; wettable powder added dropwise to water surface the day after sowing; examined on the 21st day after application
In short: (§1)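 Under greenhouse conditions, seeds sown on puddled paddy soil in 100 cm2 pots under 3 cm of standing water received the test compound; injury was assessed with a standard scoring scheme three weeks (day 21) after treatment.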

[2] = system: early watergrass (Echinochloa oryzicola Vasing); test: as above; conditions: paddy field soil application; active ingredient 1,000 g per 1 hectare; wettable powder added dropwise to water surface the day after sowing; examined on the 21st day after application
In short: as §1

[3] = system: heartshape false pickerelweed (Monochoria vaginalis (Burm.f.) C.Presl); test: as above; conditions: paddy field soil application; active ingredient 1,000 g per 1 hectare; wettable powder added dropwise to water surface the day after sowing; examined on the 21st day after application
In short: as §1

[4] = system: barnyardgrass (Echinochloa crus-galli (L.) P. Beauv. var. crus-galli); test: Test Example 2: herbicidal effect by soil application to upland field; conditions: soil surface spray, upland field soil, 1,000 g active ingredient per hectare, 21st day after application
In short: (§2)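 Seeds were sown in field soil, covered, and the soil surface sprayed with a water-diluted wettable powder at 1,000 g active ingredient per hectare in 1,000 L/ha. Plants grew in a greenhouse, and herbicidal effect was rated against a standard scale 21 days after application.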

[5] = system: green foxtail (Setaria viridis (L.) P. Beauv.); test: as above; conditions: soil surface spray, upland field soil, 1,000 g active ingredient per hectare, 21st day after application
In short: as §2

[6] = system: slender amaranth (Amaranthus viridis L.); test: as above; conditions: soil surface spray, upland field soil, 1,000 g active ingredient per hectare, 21st day after application
In short: as §2

[7] = system: velvetleaf (Abutilon theophrasti medicus); test: as above; conditions: soil surface spray, upland field soil, 1,000 g active ingredient per hectare, 21st day after application
In short: as §2

[8] = system: barnyardgrass (Echinochloa crus-galli (L.) P. Beauv. var. crus-galli); test: Test Example 3: herbicidal effect by application to upland field (foliage treatment); conditions: 14th day after application; for herbicidal effect (index), Barnyardgrass: foliage treatment, plants grown two weeks, 1,000 g active ingredient per hectare; for herbicidal effect, Barnyardgrass: foliage treatment, 1,000 g active ingredient per 1 hectare, greenhouse
In short: (§3)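 Two weeks after sowing in field soil under greenhouse conditions, seedlings receive a top-down foliar spray of wettable powder diluted in water at an active-ingredient rate of 1,000 g per hectare. Effect is rated against a standard 14 days post-treatment.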

[9] = system: green foxtail (Setaria viridis (L.) P. Beauv.); test: as above; conditions: 14th day after application; for herbicidal effect (index), Green Foxtail: foliage treatment, plants grown two weeks, 1,000 g active ingredient per hectare; for herbicidal effect, Green Foxtail: foliage treatment, 1,000 g active ingredient per 1 hectare, greenhouse
In short: as §3

[10] = system: slender amaranth (Amaranthus viridis L.); test: as above; conditions: 14th day after application; for herbicidal effect (index), Slender Amaranth: foliage treatment, plants grown two weeks, 1,000 g active ingredient per hectare; for herbicidal effect, Slender Amaranth: foliage treatment, 1,000 g active ingredient per 1 hectare, greenhouse
In short: as §3

[11] = system: velvetleaf (Abutilon theophrasti medicus); test: as above; conditions: 14th day after application; for herbicidal effect (index), Velvetleaf: foliage treatment, plants grown two weeks, 1,000 g active ingredient per hectare; for herbicidal effect, Velvetleaf: foliage treatment, 1,000 g active ingredient per 1 hectare, greenhouse
In short: as §3

| SMILES | herbicidal effect, Scirpus juncoides Roxb. [1] | herbicidal effect, Echinochloa oryzicola Vasing [2] | herbicidal effect, Monochoria vaginalis (Burm. f.) C. Presl [3] | herbicidal effect (index), Barnyardgrass [4] | herbicidal effect (index), Green Foxtail [5] | herbicidal effect (index), Slender Amaranth [6] | herbicidal effect (index), Velvetleaf [7] | herbicidal effect (index), Barnyardgrass [8] | herbicidal effect (index), Green Foxtail [9] | herbicidal effect (index), Slender Amaranth [10] | herbicidal effect (index), Velvetleaf [11] | herbicidal effect, Barnyardgrass [8] | herbicidal effect, Green Foxtail [9] | herbicidal effect, Slender Amaranth [10] | herbicidal effect, Velvetleaf [11] |
| --- | --- | --- | --- | --- | --- | --- | --- | --- | --- | --- | --- | --- | --- | --- | --- |
| CCCn1c(C(F)(F)F)ccc(C(=O)C2=C(O)CCCC2=O)c1=O [I-3] | 5 (90% or more of herbicidal effect and crop phytotoxicity) | 5 (90% or more of herbicidal effect and crop phytotoxicity) | 5 (90% or more of herbicidal effect and crop phytotoxicity) | 5 (90% or more of herbicidal effect and crop phytotoxicity) | 5 (90% or more of herbicidal effect and crop phytotoxicity) | 5 (90% or more of herbicidal effect and crop phytotoxicity) | 5 (90% or more of herbicidal effect and crop phytotoxicity) | 5 (90% or more of herbicidal effect and crop phytotoxicity) | 5 (90% or more of herbicidal effect and crop phytotoxicity) | 5 (90% or more of herbicidal effect and crop phytotoxicity) | 5 (90% or more of herbicidal effect and crop phytotoxicity) | – | – | – | – |
| Cn1ncc(C(=O)c2ccc(C(F)(F)F)n(-c3cc(F)ccc3F)c2=O)c1O [IV-83] | 5 (90% or more of herbicidal effect and crop phytotoxicity) | 5 (90% or more of herbicidal effect and crop phytotoxicity) | 5 (90% or more of herbicidal effect and crop phytotoxicity) | 5 (90% or more of herbicidal effect and crop phytotoxicity) | 5 (90% or more of herbicidal effect and crop phytotoxicity) | 5 (90% or more of herbicidal effect and crop phytotoxicity) | 5 (90% or more of herbicidal effect and crop phytotoxicity) | – | – | – | – | 5 (90% or more of herbicidal effect and crop phytotoxicity) | 5 (90% or more of herbicidal effect and crop phytotoxicity) | 5 (90% or more of herbicidal effect and crop phytotoxicity) | 5 (90% or more of herbicidal effect and crop phytotoxicity) |
| Cn1c(C(F)F)ccc(C(=O)C2=C(O)CCCC2=O)c1=O [I-221] | 5 (90% or more of herbicidal effect and crop phytotoxicity) | 5 (90% or more of herbicidal effect and crop phytotoxicity) | 5 (90% or more of herbicidal effect and crop phytotoxicity) | 5 (90% or more of herbicidal effect and crop phytotoxicity) | 3 (50 to less than 70% of herbicidal effect and crop phytotoxicity) | 5 (90% or more of herbicidal effect and crop phytotoxicity) | 5 (90% or more of herbicidal effect and crop phytotoxicity) | – | – | – | – | 5 (90% or more of herbicidal effect and crop phytotoxicity) | 4 (70 to less than 90% of herbicidal effect and crop phytotoxicity) | 5 (90% or more of herbicidal effect and crop phytotoxicity) | 5 (90% or more of herbicidal effect and crop phytotoxicity) |
| CCCCCCn1c(C(F)(F)F)ccc(C(=O)C2=C(O)C3CCC(C3)C2=O)c1=O (centres unmarked) [III-10] | 5 (90% or more of herbicidal effect and crop phytotoxicity) | 5 (90% or more of herbicidal effect and crop phytotoxicity) | 5 (90% or more of herbicidal effect and crop phytotoxicity) | 5 (90% or more of herbicidal effect and crop phytotoxicity) | 5 (90% or more of herbicidal effect and crop phytotoxicity) | 5 (90% or more of herbicidal effect and crop phytotoxicity) | 5 (90% or more of herbicidal effect and crop phytotoxicity) | – | – | – | – | 5 (90% or more of herbicidal effect and crop phytotoxicity) | 5 (90% or more of herbicidal effect and crop phytotoxicity) | 4 (70 to less than 90% of herbicidal effect and crop phytotoxicity) | 5 (90% or more of herbicidal effect and crop phytotoxicity) |
| COc1ccc(-n2c(C(F)(F)F)ccc(C(=O)c3cnn(C)c3O)c2=O)cc1F [IV-92] | 5 (90% or more of herbicidal effect and crop phytotoxicity) | 5 (90% or more of herbicidal effect and crop phytotoxicity) | 5 (90% or more of herbicidal effect and crop phytotoxicity) | 5 (90% or more of herbicidal effect and crop phytotoxicity) | 5 (90% or more of herbicidal effect and crop phytotoxicity) | 5 (90% or more of herbicidal effect and crop phytotoxicity) | 5 (90% or more of herbicidal effect and crop phytotoxicity) | – | – | – | – | 4 (70 to less than 90% of herbicidal effect and crop phytotoxicity) | 4 (70 to less than 90% of herbicidal effect and crop phytotoxicity) | 5 (90% or more of herbicidal effect and crop phytotoxicity) | 4 (70 to less than 90% of herbicidal effect and crop phytotoxicity) |
| COc1ccccc1-n1c(C(F)(F)F)ccc(C(=O)C2=C(O)CCCC2=O)c1=O [I-76] | 5 (90% or more of herbicidal effect and crop phytotoxicity) | 5 (90% or more of herbicidal effect and crop phytotoxicity) | 5 (90% or more of herbicidal effect and crop phytotoxicity) | 5 (90% or more of herbicidal effect and crop phytotoxicity) | 5 (90% or more of herbicidal effect and crop phytotoxicity) | 5 (90% or more of herbicidal effect and crop phytotoxicity) | 5 (90% or more of herbicidal effect and crop phytotoxicity) | 5 (90% or more of herbicidal effect and crop phytotoxicity) | 3 (50 to less than 70% of herbicidal effect and crop phytotoxicity) | 5 (90% or more of herbicidal effect and crop phytotoxicity) | 5 (90% or more of herbicidal effect and crop phytotoxicity) | – | – | – | – |
| COCCCn1c(C(F)(F)F)ccc(C(=O)c2cnn(C)c2OC(C)=O)c1=O [IV-48] | 5 (90% or more of herbicidal effect and crop phytotoxicity) | 5 (90% or more of herbicidal effect and crop phytotoxicity) | 5 (90% or more of herbicidal effect and crop phytotoxicity) | 4 (70 to less than 90% of herbicidal effect and crop phytotoxicity) | 5 (90% or more of herbicidal effect and crop phytotoxicity) | 5 (90% or more of herbicidal effect and crop phytotoxicity) | 5 (90% or more of herbicidal effect and crop phytotoxicity) | – | – | – | – | 5 (90% or more of herbicidal effect and crop phytotoxicity) | 4 (70 to less than 90% of herbicidal effect and crop phytotoxicity) | 5 (90% or more of herbicidal effect and crop phytotoxicity) | 5 (90% or more of herbicidal effect and crop phytotoxicity) |
